Values quoted from earlier work as cited in article PMC6270209, “Synthesis, Antimycobacterial Activity and In Vitro Cytotoxicity of 5-Chloro-N-phenylpyrazine-2-carboxamides” (Molecules, 2013).

Test system: M. tbc strains (PZA-sensitive, PZA-resistant)
Design: method as in PMID 9527809
Conditions: cited from earlier work

**Q.** For `NC(=O)c1cnc(Cl)cn1` [Compound 5-Cl-PZA, 5-chloropyrazine-2-carboxamide, reference compound], which “MIC for PZA-resistant strains” value (PZA-resistant strains) is on record?
**A.** 8 to 64 µg/mL

**Q.** And the “MIC for PZA-sensitive M. tbc strains” value (PZA-sensitive strains)?
**A.** 8 to 32 µg/mL
